Measured values from article PMC4740413, “Multi-Drug Resistance Transporters and a Mechanism-Based Strategy for Assessing Risks of Pesticide Combinations to Honey Bees” (PLoS ONE, 2016).
Where two headings read alike, the source gives them in different places.

Tests used:
[1] = tested on: honey bees; details: for Mortality (SE) 1 μg/ml IVM and 1mM Inhibitor: 1 mM inhibitor fed 24 h, then 1 mM inhibitor + 1 μg/ml ivermectin, proportion of bees dead at 24 h; for Mortality (SE), inhibitor-only control: 1 mM inhibitor without ivermectin, proportion of bees dead
Procedure: Apis mellifera were obtained from hives maintained on the University of Maryland farm in Beltsville, MD. Hives were maintained by standard bee keeping practices, and kept free of in-hive medications. Brood frames were taken from hives and emerging bees were collected daily into 207 ml cages of 15–20 bees and fed 30% sucrose w/v solution. Bees used in bioassays were 3–7 days post-eclosion.
Mortality was recorded 24 h after ivermectin exposure for 20–28 replicate cages of bees with approximately 15 bees in each cage. No-inhibitor controls (15 cages) were included in each assay. […] Mortality rates for each concentration of ivermectin were estimated by averaging the mortality of approximately 15 bees contained in each of 4 replicate cages. Similarly, to measure changes in sensitivity to ivermectin at varying dosages of the inhibitors, 4–12 replicate cages of bees (fewer at extreme dosages, more at intermediates) were fed a series of concentrations of each inhibitor (0, 0.03, 0.06, 0.125, 0.25, 0.5, 1.0, 2.0 mM) for 24 h, then fed a combination of the same inhibitor dose and 1μg/ml ivermectin solution.
Mortality was estimated as the proportion of bees within a cage that were dead at 24 or 48 h after treatment with ivermectin. Comparisons of mean mortality among treatments were tested using t-tests. LC50s of ivermectin with inhibitors were estimated using the ProcProbit procedure in SAS (V. 9.2).

[2] = tested on: honey bees; test: Acetamiprid assay: honey bee mortality after acetamiprid with or without inhibitors; details: for Mean mortality, acetamiprid with inhibitor: 1 mM inhibitor + 0.1 μg/μl acetamiprid; for Mean mortality, inhibitor only: 1 mM inhibitor without insecticide, 3 replicate cages

Row | SMILES | Mortality (SE) 1 μg/ml IVM and 1mM Inhibitor [1] | Mortality (SE), inhibitor-only control [1] | Mortality (SE), inhibitor-only control ([1]; listed as quercetin) | Mean mortality, acetamiprid with inhibitor ([2]; 24 h) | Mean mortality, inhibitor only [2] | Synergism Ratio (LC50 relative to IVM) ([1]; 1 mM inhibitor) | LC50 of ivermectin ([1]; ivermectin alone in syrup, 24 h) | Mean mortality, acetamiprid alone ([2]; 0.1 μg/μl acetamiprid, 24 h) | Low inhibitor dosage that increases sensitivity of bees to ivermectin ([1]; 1 μg/ml ivermectin, 24 h (Fig 2)) | Mortality (SE), inhibitor-only control ([1]; listed as fumagillin)
1 | O=c1c(O)c(-c2ccc(O)c(O)c2)oc2cc(O)cc(O)c12 [Quercetin, quercetin] | 0.54 | 0.02 (0.02) | 0.02 | 0.97 | 0.07 |  |  |  |  | 
2 | CC[C@H](C)[C@H]1O[C@]2(CC[C@@H]1C)C[C@@H]1C[C@@H](C/C=C(\C)[C@@H](O[C@H]3C[C@H](OC)[C@@H](O[C@H]4C[C@H](OC)[C@@H](O)[C@H](C)O4)[C@H](C)O3)[C@@H](C)/C=C/C=C3\CO[C@@H]4[C@H](O)C(C)=C[C@@H](C(=O)O1)[C@]34O)O2 [Ivermectin (IVM), Ivermectin] |  |  |  |  |  | 1.00 | 1.57 µg/mL |  |  | 
3 | C/C(=N\C#N)N(C)Cc1ccc(Cl)nc1 [acetamiprid] |  |  |  |  |  |  |  | 0.25 |  | 
4 | CO[C@@H]1[C@H](OC(=O)/C=C/C=C/C=C/C=C/C(=O)O)CC[C@]2(CO2)[C@H]1[C@@]1(C)O[C@@H]1CC=C(C)C [Fumagillin, fumagillin] | 0.47 | 0.01 (0.01) |  | 0.80 | 0.01 |  |  |  | 0.03 mM | 0.01
